Results: paper PMC6225185 (2018)

Legend:
[1] = tested on: [d-(TTGGGGT)]4 (DNA, G4) TTGGGGT; experiment: 1H NMR titration (T7H6 and T7CH3 shifts); conditions: 100 mM KCl, 10 mM K2HPO4; 1 mM EDTA, pH 7.0, 25 °C, 90% H2O/10% D2O; site 1 of 2 (G6-T7); apparent
[2] = tested on: [d-(TTGGGGT)]4 immobilized (SPR) (DNA, G4) TTGGGGT; experiment: SPR steady state; conditions: 100 mM KCl; 10 mM HEPES, 3 mM EDTA, 0.005% P20, pH 7.4, 25 °C; dominant mode
[3] = tested on: [d-(TTGGGGT)]4 (DNA, G4) TTGGGGT; experiment: DSC; conditions: 100 mM KCl, 10 mM K2HPO4; 1 mM EDTA, pH 7.0; 50 µM quadruplex, D/N = 4.0 (200 µM daunomycin); third transition

SMILES: COc1cccc2c1C(=O)c1c(O)c3c(c(O)c1C2=O)C[C@@](O)(C(C)=O)C[C@@H]3O[C@H]1C[C@H](N)[C@H](O)[C@H](C)O1
- Kb [1]: ~ 1.8–2.3 × 10^4 M^−1
- Kb [2]: ~ 4.1 × 10^3 M^−1
- ΔTm3 [3]: 14.4 ± 1.1 °C
